Assay results reported in patent US10220010B2 (AuXin Surgery SA, priority 2014, dated 2019).
Values joined by “and” are separate entries in the source; they are usually repeats but may differ in a detail not shown here. Equal values may be shown once.

Assay: impurities levels (Mesna disulphide percentage) of lyophilizate Mesna compositions
Format: physicochemical
Conditions: content in composition
Experimental: Measurements of Mesna disulfide percentage were conducted for different Mesna lyophilizates made according to the present invention. The compositions of the tested Mesna lyophilizates comprised 125 mg or 250 mg of Mesna in 2 ml Water for Injection. Other tested Mesna lyophilizates compositions further comprised trehalose or Mannitol. […] Any slightly higher increase was of maximum 0.5% compared to the Mesna disulfide percentage measured for the pharmaceutical grade Mesna (Table 2). […] In addition, the sum of Mesna disulphide percentage and other impurities percentage was also always lower than said maximum of 3%.

MESNA: 98.82% and 98.80% and 98.96% | Other impurities: 0.15% and 0.20% and 0.19% | Mesna disulphide (stability marker): 1.03% and 1.00% and 0.85%
SMILES: O=S(=O)([O-])CCS.[Na+] [Mesna P, Sodium 2-mercaptoethanesulfonate]
